The text below walks through data of patent publication US12617762B2, “Carboxy derivatives with antiinflamatory properties” (Sitryx Therapeutics Limited, priority 2019, dated 2026).

Structures can show the parent of a compound that is named as a salt. Where two headings read alike, the source gives them in different places.

The subject of assay [1] is IL-1β cytokine output from THP-1s. In words: THP-1 AlphaLISA IL-1β cytokine inhibition assay. The settings on record: for IC50: LPS then nigericin. Type of assay: cell-based. As for the experimental part:
Measuring Inhibitory Effects on IL-1β Cytokine Output from THP-1s
The cytokine inhibition profiles of compounds of formula (I) were determined in a differentiated THP-1 cell assay. All assays were performed in RPMI-1640 growth medium (Gibco), supplemented with 10% fetal bovine serum (FBS; Gibco), 1% penicillin-streptomycin and 1% sodium pyruvate unless specified otherwise. The IL-1β cytokine inhibition assay was run in a background of differentiated THP-1 cells as described below. All reagents described were from Sigma-Aldrich unless specified otherwise. Compounds were prepared as 10 mM DMSO stocks.
THP-1 cells were expanded as a suspension up to 80% confluence in appropriate growth medium. Cells were harvested, suspended, and treated with an appropriate concentration of phorbol 12-myristate 13-acetate (PMA) over a 72 hr period (37° C./5% CO2).
Following 72 hrs of THP-1 cell incubation, cellular medium was removed and replaced with fresh growth media containing 1% of FBS. Working concentrations of compounds were prepared separately in 10% FBS treated growth medium and pre-incubated with the cells for 30 minutes (37° C./5% CO2). Following the 30 minute compound pre-incubation, THP-1s were treated with an appropriate concentration of LPS and the cells were subsequently incubated for a 24 hr period (37° C./5% CO2). An appropriate final concentration of Nigericin was then dispensed into the THP-1 plates and incubated for 1 hour (37° C./5% CO2) before THP-1 supernatants were harvested and collected in separate polypropylene 96-well holding plates.
Reagents from an IL-1β and IL-6 commercial kit (Perkin Elmer) were prepared and run according to the manufacturer's instructions. Subsequently, fluorescence signal detection in a microplate reader was measured (EnVision® Multilabel Reader, Perkin Elmer).
Percentage inhibition was calculated per cytokine by normalising the sample data to the high and low controls used within each plate (+/− LPS respectively).
Background: Alpha assays give light when donor and acceptor beads are brought close together.

For assay [2], the system named is NRF2 (nuclear factor erythroid 2-related factor 2). The assay can be described thus: NRF2 +/-GSH activation assay (DiscoverX PathHunter NRF2 translocation kit, U2OS cells). The assay is classed as cell-based. As to conditions: for NRF2 activation +GSH Emax / NRF2 activation −GSH Emax: normalised to DMF high control. As to the method:
Measuring Compound Activation Effects on the Anti-Inflammatory Transcription Factor NRF2 in DiscoverX PathHunter NRF2 Translocation Kit
Potency and efficacy of compounds of formula (I) against the target of interest to activate NRF2 (nuclear factor erythroid 2-related factor 2) were determined using the PathHunter NRF2 translocation kit (DiscoverX). The NRF2 translocation assay was run using an engineered recombinant cell line, utilising enzyme fragment complementation to determine activation of the Keap1-NRF2 protein complex and subsequent translocation of NRF2 into the nucleus. Enzyme activity was quantified using a chemiluminescent substrate consumed following the formation of a functional enzyme upon PK-tagged NRF2 translocation into the nucleus.
The assay was run under both +/−GSH (glutathione) conditions to determine the sensitivity of the compounds' NRF2-activating abilities to attenuation by GSH.
Additionally, a defined concentration of DMF was used as the ‘High’ control to normalise test compound activation responses to.
U2OS PathHunter eXpress cells were thawed from frozen prior to plating. Following plating, U2OS cells were incubated for 24 hrs (37° C./5% CO2) in commercial kit provided cell medium.
Following 24 hrs of U2OS incubation, cells were directly treated with an appropriate final concentration of compound, for −GSH conditions or, for +GSH conditions, an intermediate plate containing 6× working concentrations of compound stocks was prepared in a 6 mM working concentration of GSH solution (solubilised in sterile PBS). Following a 30 minute compound-GSH pre-incubation (37° C./5% CO2) for +GSH treatment, plated U2OS cells were incubated with an appropriate final concentration of compound and GSH.
Following compound (+/−GSH) treatment, the U2OS plates were incubated for a further 6 hours (37° C./5% CO2) before detection reagent from the PathHunter NRF2 commercial kit was prepared and added to test plates according to the manufacturer's instructions. Subsequently, the luminescence signal detection was measured in a microplate reader (PHERAstar®, BMG Labtech).
Percentage activation was calculated by normalising the sample data to the high and low controls used within each plate (+/−DMF).

Setting [3] is: Homo sapiens, THP-1, differentiated THP-1 cells.
[4] abbreviates: +GSH, 30 minute compound-GSH pre-incubation, read-out: NRF2 activation +GSH EC50.
[5] abbreviates: −GSH, U2OS PathHunter cells, 6 hours compound treatment, read-out: NRF2 activation −GSH EC50.

In general, IC50 refers to the concentration that gives 50% inhibition. One may read the EC50 as the concentration at which the effect is half-maximal.

Regarding `C=C(Cc1nc(-c2ccc(N3CCCC3)cc2)no1)C(=O)O` [Example 132, 2-((3-(4-(pyrrolidin-1-yl)phenyl)-1,2,4-oxadiazol-5-yl)methyl)acrylic acid], the IC50 in assay [1] (setting [3]) came out at 29.9 µM.

In the case of `C=C(Cc1nc(CCCc2ccc(Cl)cc2)no1)C(=O)O` [Example 33, 2-((3-(3-(4-chlorophenyl)propyl)-1,2,4-oxadiazol-5-yl)methyl)acrylic acid], in assay [1] (setting [3]), the half-inhibitory concentration (IC50) was found to be 83.5 µM. Besides, the EC50 was found to be 23.3 µM in assay [2] (setting [4]) and 18.3 µM in assay [2] (setting [5]). Moreover, the “NRF2 activation +GSH Emax” value in assay [2] (+GSH) worked out at 160%. For the same compound, in assay [2] (−GSH), the “NRF2 activation −GSH Emax” value stood at 150%.

Turning to `C=C(Cc1nc(-c2ccc(OCCCOC)cc2)no1)C(=O)O` [Example 159, 2-((3-(4-(3-methoxypropoxy)phenyl)-1,2,4-oxadiazol-5-yl)methyl)acrylic acid], in assay [1] (setting [3]), the IC50 was > 100 µM. For the same compound, the EC50 in assay [2] (setting [4]) is 39.9 µM; in assay [2] (setting [5]), 34.4 µM. For the same compound, the “NRF2 activation +GSH Emax” value in assay [2] (+GSH) stood at 85%. In assay [2] (−GSH), the “NRF2 activation −GSH Emax” value was 87%.

Turning to `C=C(Cc1nc(CCCC)c(CCCC)o1)C(=O)O` [Example 123, 2-((4,5-dibutyloxazol-2-yl)methyl)acrylic acid], in assay [1] (setting [3]), the IC50 is > 100 µM. The results for the EC50 in assay [2] (setting [4]) and in assay [2] (setting [5]) were 62.4 µM and 6.6 µM, respectively. Besides, the “NRF2 activation +GSH Emax” value in assay [2] (+GSH) came out at 42%. Further, the “NRF2 activation −GSH Emax” value in assay [2] (−GSH) worked out at 111%.

The compound `C=C(Cc1nc(-c2ccc(OC3CCCC3)cc2)no1)C(=O)O` [Example 143, 2-((3-(4-cyclopentyloxyphenyl)-1,2,4-oxadiazol-5-yl)methyl)acrylic acid] had an IC50 in assay [1] (setting [3]) of 22.1 µM. In addition, the EC50 in assay [2] (setting [4]) amounted to 14.5 µM; in assay [2] (setting [5]), 12 µM. Moreover, in assay [2] (+GSH), the “NRF2 activation +GSH Emax” value is 195%. The “NRF2 activation −GSH Emax” value in assay [2] (−GSH) is 243%.

As to `C=C(Cc1nc(-c2ccc(I)cc2)no1)C(=O)O` [Example 119, 2-((3-(4-iodophenyl)-1,2,4-oxadiazol-5-yl)methyl)acrylic acid], the 50% inhibitory concentration (IC50) in assay [1] (setting [3]) was determined as 59.6 µM.

In the case of `C=C(Cc1noc(Cc2ccc(CCCC)cc2)n1)C(=O)O` [Example 95, 2-((5-(4-butylbenzyl)-1,2,4-oxadiazol-3-yl)methyl)acrylic acid], in assay [1] (setting [3]), the IC50 is > 31.6 µM. Further, the results for the 50% effective concentration (EC50) in assay [2] (setting [4]) and in assay [2] (setting [5]) were 3.9 µM and 2.8 µM, respectively. Further, the “NRF2 activation +GSH Emax” value in assay [2] (+GSH) turned out to be 183%. Besides, the “NRF2 activation −GSH Emax” value in assay [2] (−GSH) amounted to 217%.

On to `C=C(Cc1nc(C2CCCCCC2)no1)C(=O)O` [Example 65, 2-((3-cycloheptyl-1,2,4-oxadiazol-5-yl)methyl)acrylic acid], for which, in assay [1] (setting [3]), the IC50 was > 100 µM. For the same compound, the “IL-1β lowering, result in words” value in assay [1] (THP-1 IL-1β assay) is reported as “not effective”. The EC50 in assay [2] (setting [4]) and in assay [2] (setting [5]) was > 100 µM in each case. For the same compound, in assay [2] (+GSH), the “NRF2 activation +GSH Emax” value was 17%. The “NRF2 activation −GSH Emax” value in assay [2] (−GSH) stood at 50%.

`C=C(Cc1nc(-c2ccc(OC(C)CC)cc2)no1)C(=O)O` (stereo in doubt) [Example 145, (S)-2-((3-(4-(sec-butoxy)phenyl)-1,2,4-oxadiazol-5-yl)methyl)acrylic acid]: in assay [1] (differentiated THP-1 cells), the half-inhibitory concentration (IC50) was determined as 35.6 µM. Further, the EC50 in assay [2] (setting [4]) is 31.4 µM; in assay [2] (setting [5]), 28.4 µM. In addition, the “NRF2 activation +GSH Emax” value in assay [2] (+GSH) stood at 135%. Besides, in assay [2] (−GSH), the “NRF2 activation −GSH Emax” value is on record as 170%.

Take `C=C(Cc1nc(-c2ccc(OCCC)cc2)no1)C(=O)O` [Example 149, 2-((3-(4-propoxyphenyl)-1,2,4-oxadiazol-5-yl)methyl)acrylic acid]: the half-inhibitory concentration (IC50) in assay [1] (setting [3]) was found to be 50 µM.

Regarding `C=C(Cc1nc(-c2ccc(Br)cc2)no1)C(=O)O` [Example 118, 2-((3-(4-bromophenyl)-1,2,4-oxadiazol-5-yl)methyl)acrylic acid], in assay [1] (setting [3]), it took 59.6 µM to reach half-maximal inhibition (IC50).

Compound `C=C(Cc1nc(C2(c3ccc(S(=O)(=O)C(F)(F)F)cc3)CC2)no1)C(=O)O` [Example 122, 2-((3-(1-(4-((trifluoromethyl)sulfonyl)phenyl)cyclopropyl)-1,2,4-oxadiazol-5-yl)methyl)acrylic acid] had an IC50 in assay [1] (setting [3]) of 75.5 µM.

Take `C=C(Cc1nc(-c2ccc(SC(F)(F)F)cc2)no1)C(=O)O` [Example 158, 2-((3-(4-((trifluoromethyl)thio)phenyl)-1,2,4-oxadiazol-5-yl)methyl)acrylic acid]: the IC50 in assay [1] (setting [3]) was > 31.6 µM. Besides, the EC50 was 2.9 µM in assay [2] (setting [4]) and 2.6 µM in assay [2] (setting [5]). The “NRF2 activation +GSH Emax” value in assay [2] (+GSH) stood at 196%. Besides, the “NRF2 activation −GSH Emax” value in assay [2] (−GSH) worked out at 189%.

`C=C(Cc1nc(Cc2ccc(OC)c(Cl)c2)no1)C(=O)O` [Example 163, 2-((3-(3-chloro-4-methoxybenzyl)-1,2,4-oxadiazol-5-yl)methyl)acrylic acid]: the IC50 in assay [1] (setting [3]) was > 100 µM. The results for the EC50 in assay [2] (setting [4]) and in assay [2] (setting [5]) were > 100 µM and 61.4 µM, respectively. In assay [2] (+GSH), the “NRF2 activation +GSH Emax” value is −10%. For the same compound, the “NRF2 activation −GSH Emax” value in assay [2] (−GSH) came to 61%.

Consider `C=C(Cc1nc(C2CCc3c(Cl)cc(Cl)cc32)no1)C(=O)O` (stereo not shown) [Example 148, 2-((3-(4,6-dichloro-2,3-dihydro-1H-inden-1-yl)-1,2,4-oxadiazol-5-yl)methyl)acrylic acid], for which, in assay [1] (setting [3]), the IC50 is 42.6 µM.

In assay [1] (setting [3]), `C=C(Cc1noc(C2(c3ccc(OC(F)(F)F)cc3)CC2)n1)C(=O)O` [Example 99, 2-((5-(1-(4-(trifluoromethoxy)phenyl)cyclopropyl)-1,2,4-oxadiazol-3-yl)methyl)acrylic acid] registered an IC50 of 52.3 µM.

`C=C(Cc1nc(C(F)c2ccc(Cl)cc2)no1)C(=O)O` (stereo not shown) [Example 152, 2-((3-((4-chlorophenyl)fluoromethyl)-1,2,4-oxadiazol-5-yl)methyl)acrylic acid]: the IC50 in assay [1] (setting [3]) was 36.4 µM.

With `C=C(Cc1nc(C2(c3ccc(OC4CC4)cc3)CC2)no1)C(=O)O` [Example 114], the IC50 in assay [1] (setting [3]) was determined as 55.2 µM.

Consider `COC(=O)/C=C/C(=O)OC` [dimethyl fumarate, reference compound], for which the EC50 in assay [2] (setting [4]) is > 100 µM; in assay [2] (setting [5]), 6.1 µM. Moreover, the “NRF2 activation +GSH Emax” value in assay [2] (+GSH) was determined as 20%. Moreover, the “NRF2 activation −GSH Emax” value in assay [2] (−GSH) came to 100%.

In assay [1] (setting [3]), `C=C(Cc1nc(Oc2ccc(CCCC)cc2)no1)C(=O)O` [Example 126, 2-((3-(4-butylphenoxy)-1,2,4-oxadiazol-5-yl)methyl)acrylic acid] had an IC50 of 32.1 µM.

In assay [1] (setting [3]), `C=C(Cc1nc(Cc2ccc(C(F)(F)F)c(Cl)c2)no1)C(=O)O` [Example 137, 2-((3-(3-chloro-4-(trifluoromethyl)benzyl)-1,2,4-oxadiazol-5-yl)methyl)acrylic acid] returned an IC50 of 60.5 µM.

`C=C(Cc1nc(Cc2ccc(Br)c(Cl)c2)no1)C(=O)O` [Example 139, 2-((3-(4-bromo-3-chlorobenzyl)-1,2,4-oxadiazol-5-yl)methyl)acrylic acid] registered an IC50 in assay [1] (setting [3]) of 41.1 µM.

`C=C(Cc1nc(-c2ccc(S(F)(F)(F)(F)F)cc2)no1)C(=O)O` [Example 121, 2-((3-(4-(pentafluoro-λ^6-sulfaneyl)phenyl)-1,2,4-oxadiazol-5-yl)methyl)acrylic acid]: the IC50 in assay [1] (setting [3]) amounted to 61.8 µM.

As to `C=C(Cc1nc(C(F)(F)c2ccc(OC)c(Cl)c2)no1)C(=O)O` [Example 150, 2-((3-((3-chloro-4-methoxyphenyl)difluoromethyl)-1,2,4-oxadiazol-5-yl)methyl)acrylic acid], in assay [1] (setting [3]), the IC50 was determined as 52.7 µM.
